Structures can show the parent of a compound that is named as a salt.
Key:
[1] = target: T1, serotonin 1A receptor (Rattus norvegicus, UniProt P19327); assay: Binding test on [3H] 8-hydroxy-dipropylaminotetralin, hippocampus receptor fraction; parameters: species or system SD rats; settings: rat hippocampus receptor fraction, 0.5 nM [3H] 8-OH-DPAT, room temperature 30 min; read-out: 5HT1
T1 construct: To the receptor fraction of the hippocampus were added a test compound and 0.5 nM of [^3H]; 8-hydroxy-dipropylaminotetralin; from tissue; host or cells: rat hippocampus membrane fraction
T1 sequence (P19327 1-422): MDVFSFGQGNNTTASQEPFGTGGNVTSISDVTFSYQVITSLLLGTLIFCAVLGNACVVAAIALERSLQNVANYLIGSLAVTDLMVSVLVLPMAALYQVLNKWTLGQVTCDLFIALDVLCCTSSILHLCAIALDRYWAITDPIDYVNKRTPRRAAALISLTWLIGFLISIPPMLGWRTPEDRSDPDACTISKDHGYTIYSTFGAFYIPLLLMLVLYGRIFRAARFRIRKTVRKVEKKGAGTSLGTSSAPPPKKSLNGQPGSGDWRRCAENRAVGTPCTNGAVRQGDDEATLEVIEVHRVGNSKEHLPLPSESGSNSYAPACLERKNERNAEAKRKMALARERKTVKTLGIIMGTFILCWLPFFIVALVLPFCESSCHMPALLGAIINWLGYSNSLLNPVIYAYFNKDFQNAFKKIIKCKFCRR

[2] = target: T2, serotonin 2 receptor (Rattus norvegicus, UniProt P14842); assay: Binding test on [3H] ketanserin, cerebral cortex receptor fraction; parameters: species or system SD rats; settings: 0.3 nM [3H] ketanserin, 37° C. 15 min, read-out: 5HT2
T2 construct: To the receptor fraction of the cerebral cortex were added a test compound and 0.3 nM of [^3H] ketanserin; from tissue; host or cells: rat cerebral cortex membrane fraction
T2 sequence (P14842 whole entry): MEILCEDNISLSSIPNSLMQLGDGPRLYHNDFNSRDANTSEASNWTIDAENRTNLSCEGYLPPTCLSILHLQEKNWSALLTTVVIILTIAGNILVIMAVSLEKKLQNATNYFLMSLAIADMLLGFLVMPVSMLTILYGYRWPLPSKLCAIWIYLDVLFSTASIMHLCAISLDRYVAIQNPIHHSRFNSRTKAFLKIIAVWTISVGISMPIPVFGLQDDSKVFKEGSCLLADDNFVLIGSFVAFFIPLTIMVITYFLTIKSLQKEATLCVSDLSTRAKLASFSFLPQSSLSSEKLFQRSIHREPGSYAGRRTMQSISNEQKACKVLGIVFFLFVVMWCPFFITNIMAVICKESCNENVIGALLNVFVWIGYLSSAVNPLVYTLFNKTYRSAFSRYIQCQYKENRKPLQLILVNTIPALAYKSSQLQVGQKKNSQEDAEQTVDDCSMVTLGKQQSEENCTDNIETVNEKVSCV

SMILES	Ki [1] [nM]	Ki [2] [nM]
CCN1CCN(c2nc(-c3ccc([C@@H]4C[C@H](O)CCO4)cc3)cc3ccccc23)CC1 (relative stereo) [Example 401, 1-(4-Ethylpiperazin-1-yl)-3-[4-(cis-4-Hydroxytetrahydropyran-2-yl)Phenyl]Isoquinoline Dihydrochloride]	31.3	3.4
CCN1CCN(c2nc(-c3ccc([C@@H]4C[C@@H](O)CCO4)cc3)cc3ccccc23)CC1 (relative stereo) [Example 402, 1-(4-Ethylpiperazin-1-yl)-3-[4-(trans-4-Hydroxytetrahydropyran-2-yl)Phenyl]Isoquinoline Dihydrochloride]	23.7	2.1
CCN1CCN(c2nc(-c3ccc([C@@H]4C[C@H](O)CCO4)cc3)cc3ccsc23)CC1 (relative stereo) [Example 454, 7-(4-Ethylpiperazin-1-yl)-5-[4-(cis-4-hydroxytetrahydropyran-2-yl)phenyl]thieno[2,3-c]pyridine dihydrochloride]	67.4	26.5
CCN1CCN(c2nc(-c3ccc([C@@H]4C[C@@H](O)CCO4)cc3)cc3ccsc23)CC1 (relative stereo) [Example 455, 7-(4-ethylpiperazin-1-yl)-5-[4-(trans-4-hydroxytetrahydropyran-2-yl)phenyl]thieno[2,3-c]pyridine dihydrochloride]	50.3	40
CCN1CCN(c2nc(C=C(COC)c3ccccc3)cc3ccccc23)CC1 (stereo in doubt) [Example 208, 3-[(E)-2-Methoxymethyl-2-Phenylethenyl]-1-(4-Ethylpiperazin-1-Yl)Isoquinoline Oxalate]	91.6	7.62
CCN1CCN(c2nc(-c3ccc(OCC(C)O)cc3)cc3cccnc23)CC1 (stereo in doubt) [Example 246, 8-(1-ethylpiperazin-4-yl)-6-{4-[(S)-2-hydroxypropoxy}phenyl]-1,7-naphthyridine Dihydrochloride]	87	13.9
CCN1CCN(c2nc(-c3ccc(OCC(C)O)cc3)cc3ccoc23)CC1 (stereo in doubt) [Example 304, 7-(1-ethylpiperazin-4-yl)-5-[4-[(S)-2-hydroxypropoxy]phenyl)furo[2,3-c]pyridine dihydrochloride]	15.4	19.4
CCN1CCN(c2nc(-c3ccc(O[C@H](C)CO)cc3)cc3sccc23)CC1 (stereo in doubt) [Example 463, 4-(4-ethylpiperazin-1-yl)-6-[4-(2-hydroxy-1-methylethoxy)phenyl]thieno[3,2-c]pyridine dihydrochloride]	6.98	20.9
CCN1CCN(c2nc(-c3ccnc(OCc4ccccc4)c3)cc3ccccc23)CC1 [406 2-Benzyloxy, 1-(4-ethylpiperazin-1-yl)-3-(2-benzyloxypyridin-4-yl)isoquinoline]	46	88.1
CCN1CCN(c2nc(-c3ccnc(Cl)c3)cc3ccccc23)CC1 [406 2-chloro, 1-(4-ethylpiperazin-1-yl)-3-(2-chloropyridin-4-yl)isoquinoline]	12.2	11.1
CN(C)CCC=C1c2ccccc2C=Cc2ccccc21 [Cyclobenzaprine, cyclobenzaprine hydrochloride, reference compound]	25	29
CN1CCN(c2nc(-c3ccc(OCCO)cc3)cc3ccccc23)CC1 [Example 3, 1-(1-methylpiperazin-4-yl)-3-[4-(2-hydroxyethoxy)phenyl]isoquinoline]	65	3.8
CCN1CCN(c2nc(-c3ccc(C(F)(F)F)cc3)cc3ccccc23)CC1 [Example 4, 1-(4-ethylpiperazin-1-yl)-3-(4-trifluoromethylphenyl)isoquinoline Dihydrochloride]	71	74.9
CCC(F)c1ccc(-c2cc3ccccc3c(N3CCN(CC)CC3)n2)cc1 (stereo not drawn) [Example 5, 1-(4-ethylpiperazin-1-yl)-3-[4-(1-fluoropropyl)phenyl]isoquinoline Hydrochloride]	21	2.2
CCN1CCN(c2nc(-c3cccc(OC)c3)cc3ccccc23)CC1 [Example 9, 1-(4-ethylpiperazin-1-yl)-3-(3-methoxyphenyl)isoquinone Dihydrochloride]	57	24.5
CCN1CCN(c2nc(-c3ccc(OC)cc3)cc3ccccc23)CC1 [Example 10, 1-(4-Ethylpiperazin-1-yl)-3-(4-methoxyphenyl)isoquinoline]	60	11
CCN1CCN(c2nc(-c3ccc(OC)c(OC)c3)cc3ccccc23)CC1 [Example 14, 3-(3,4-dimethoxyphenyl)-1-(4-ethylpiperazin-1-yl)isoquinoline Dihydrochloride]	23	35

SMILES	Ki [1] [nM]	Ki [2] [nM]
CCN1CCN(c2nc(-c3cc(OC)cc(OC)c3)cc3ccccc23)CC1 [Example 15, 3-(3,5-dimethoxyphenyl)-1-(4-ethylpiperazin-1-yl)isoquinoline Dihydrochloride]	55.5	19.5
CCN1CCN(c2nc(-c3ccc(CO)cc3)cc3ccccc23)CC1 [Example 17, 1-(4-ethylpiperazin-1-yl)-3-(4-hydroxymethylphenyl)isoquinoline hydrochloride]	11.1	26.8
CCN1CCN(c2nc(-c3ccc(C(O)CCO)cc3)cc3ccccc23)CC1 (stereo not drawn) [Example 24, 3-[4-(1,3-dihydroxypropyl)phenyl]-1-(4-ethylpiperazin-1-yl)isoquinoline hydrochloride]	11.7	7.4
CCN1CCN(c2nc(-c3ccc(C(O)CC(C)(C)O)cc3)cc3ccccc23)CC1 (stereo not drawn) [Example 25, 3-[4-(1,3-dihydroxy-3-methylbutyl)phenyl]-1-(4-ethylpiperazin-1-yl)isoquinoline]	21.5	3.4
CCN1CCN(c2nc(-c3ccc(C(CC(C)O)OC)cc3)cc3ccccc23)CC1 (stereo not drawn) [Example 26, 3-[4-(3-hydroxy-1-methoxybutyl)phenyl]-1-(4-ethylpiperazin-1-yl)isoquinoline]	8.5	55
CCN1CCN(c2nc(-c3ccc(C(F)CCO)cc3)cc3ccccc23)CC1 (stereo not drawn) [Example 27, 1-(1-Ethylpiperazin-4-yl)-3-[4-(3-hydroxy-1-fluoropropyl)phenyl]isoquinoline]	29.4	2.47
CCN1CCN(c2nc(-c3ccc(CO)c(F)c3)cc3ccccc23)CC1 [Example 28, 1-(4-ethylpiperazin-1-yl)-3-[4-(4-hydroxymethyl-3-fluoro)phenyl]isoquinoline hydrochloride]	24.4	9.1
CCN1CCN(c2nc(-c3ccc(CCCO)c(Cl)c3)cc3ccccc23)CC1 [Example 30, 3-[3-chloro-4-(3-hydroxypropyl)phenyl]-1-(4-ethylpiperazin-1-yl)isoquinoline hydrochloride]	10.7	6.3
CCN1CCN(c2nc(-c3ccc(OC)c(CCCO)c3)cc3ccccc23)CC1 [Example 34, 3-[3-(3-hydroxypropyl)-4-methoxyphenyl]-1-(4-ethylpiperazin-1-yl)isoquinoline hydrochloride]	23.5	17.3
CCN1CCN(c2nc(-c3ccc(OC)c(CCCCO)c3)cc3ccccc23)CC1 [Example 35, 3-[3-(4-hydroxybutyl)-4-methoxyphenyl]-1-(4-ethylpiperazin-1-yl)isoquinoline hydrochloride]	35.3	5.7
CCN1CCN(c2nc(-c3cc(OCCO)cc(OCCO)c3)cc3ccccc23)CC1 [Example 38, 3-[3,5-di(2-hydroxyethoxy)phenyl]-1-(4-ethylpiperazin-1-yl)isoquinoline hydrochloride]	20.8	75.7
CCN1CCN(c2nc(-c3ccc(OCCO)c(Cl)c3)cc3ccccc23)CC1 [Example 39, 3-[3-chloro-4-(2-hydroxyethoxy)phenyl]-1-(4-ethylpiperazin-1-yl)isoquinoline hydrochloride]	26	4.9
CCN1CCN(c2nc(-c3ccc(OCCO)c(C)c3)cc3ccccc23)CC1 [Example 40, 3-[3-methyl-4-(2-hydroxyethoxy)phenyl]-1-(4-ethylpiperazin-1-yl)isoquinoline hydrochloride]	26.7	3.1
CCN1CCN(c2nc(-c3ccc(OCCO)c(C(C)C)c3)cc3ccccc23)CC1 [Example 41, 3-[3-isopropyl-4-(2-hydroxyethoxy)phenyl]-1-(4-ethylpiperazin-1-yl)isoquinoline hydrochloride]	40.1	45.6
CCN1CCN(c2nc(-c3ccc(OCCOC)c(OCCOC)c3)cc3ccccc23)CC1 [Example 43, 3-[3,4-Di(2-Methoxyethoxy)Phenyl]-1-(4-Ethylpiperazin-1-Yl)Isoquinoline Hydrochloride]	29.3	66.6
CCN1CCN(c2nc(-c3ccc(COCCO)cc3)cc3ccccc23)CC1 [Example 44, 3-[4-(2-Hydroxyethoxylmethylphenyl]-1-(4-ethylpiperazin-1-Yl)Isoquinoline Hydrochloride]	55.4	9

From US6875761B2 (Eisai Co., Ltd., priority 1997, dated 2005)
